Experimental data reported in patent US12187746B2, “C26-linked rapamycin analogs as mTOR inhibitors” (Revolution Medicines, Inc., priority 2018, dated 2025).

Key:
P-P70S6K (T389) = assay: Cell based AlphaLISA assay, inhibition of P-P70S6K (T389) in MDA-MB-468 cells; settings: Homo sapiens, 4 h, 0.017-1,000 nM, two to four hours at 37° C., AlphaLisa SureFire Ultra, read-out: pIC50 for Inhibition of mTORC1 and mTORC2 Substrate Phosphorylation, p-P70S6K-(T389) (converted)
Procedure: (§1) Cell Based AlphaLISA Assays For Determining IC50 For Inhibition of P-Akt (S473), P-4E-BP1 (T37/46), and P-P70S6K (T389) in MDA-MB-468 Cells
(§2) mTOR Kinase Cellular Assay
(§3) To measure functional activity of mTORC1 and mTORC2 in cells the phosphorylation of 4EBP1 (Thr37/46) and P70S6K (Thr389), and AKT1/2/3 (Ser473) was monitored using AlphaLisa SureFire Ultra Kits (Perkin Elmer). […] Incubations are terminated by removal of the assay buffer and addition of lysis buffer provided with the assay kit. Samples are processed according to the manufacturer's instructions. The Alpha signal from the respective phosphoproteins is measured in duplicate using a microplate reader (Envision, Perkin-Elmer or Spectramax M5, Molecular Devices). Inhibitor concentration response curves are analyzed using normalized IC50 regression curve fitting with control based normalization.

P-4E-BP1 (T37/46) = assay: Cell based AlphaLISA assay, inhibition of P-4E-BP1 (T37/46) in MDA-MB-468 cells; settings: Homo sapiens, 4 h, 0.017-1,000 nM, two to four hours at 37° C., AlphaLisa SureFire Ultra, read-out: pIC50 for Inhibition of mTORC1 and mTORC2 Substrate Phosphorylation, p-4E-BP1-(T37/46) (converted)
Procedure: as §1, §2, §3

P-Akt (S473) = assay: Cell based AlphaLISA assay, inhibition of P-Akt (S473) in MDA-MB-468 cells; settings: Homo sapiens, 4 h, 0.017-1,000 nM, two to four hours at 37° C., AlphaLisa SureFire Ultra, read-out: pIC50 for Inhibition of mTORC1 and mTORC2 Substrate Phosphorylation, p-AKT1/2/3-(S473) (converted)
Procedure: as §1, §2, §3

| Compound | IC50 (P-P70S6K (T389)) [nM] | IC50 (P-4E-BP1 (T37/46)) [nM] | IC50 (P-Akt (S473)) [nM] |
| --- | --- | --- | --- |
| CO[C@H]1C[C@@H]2CC[C@@H](C)[C@@](O)(O2)C(=O)C(=O)N2CCCC[C@H]2C(=O)O[C@H]([C@H](C)C[C@@H]2CC[C@@H](O)[C@H](OC)C2)C[C@@H](O)[C@H](C)/C=C(\C)[C@@H](O)[C@@H](OC)C(=NOCC(=O)NCCOCCOCCOCCOCCOCCOCCOCCOCCC(=O)N2CCc3cc(Cn4nc(-c5cnc6[nH]ccc6c5)c5c(N)ncnc54)ccc3C2)[C@H](C)C[C@H](C)/C=C/C=C/C=C/1C [Example 9] | 1 to 10 | 3.16 to 31.6 | > 1000 |
| CO[C@H]1C[C@@H]2CC[C@@H](C)[C@@](O)(O2)C(=O)C(=O)N2CCCC[C@H]2C(=O)O[C@H]([C@H](C)C[C@@H]2CC[C@@H](O)[C@H](OC)C2)C[C@@H](O)[C@H](C)/C=C(\C)[C@@H](O)[C@@H](OC)C(=NOCC(=O)NCc2cnc(N3CCN(C(=O)CCOCCN4CCN(c5ncc(C(=O)N6CCc7cc(Cn8nc(-c9ccc%10oc(N)nc%10c9)c9c(N)ncnc98)ccc7C6)cn5)CC4)CC3)nc2)[C@H](C)C[C@H](C)/C=C/C=C/C=C/1C [Example 30] | < 1 | 3.16 to 31.6 | > 1000 |
| CO[C@H]1C[C@@H]2CC[C@@H](C)[C@@](O)(O2)C(=O)C(=O)N2CCCC[C@H]2C(=O)O[C@H]([C@H](C)C[C@@H]2CC[C@@H](O)[C@H](OC)C2)C[C@@H](O)[C@H](C)/C=C(\C)[C@@H](O)[C@@H](OC)C(=NOCC(=O)N2CCc3nc(N4CCN(C(=O)CCOCCN5CCN(c6ncc(C(=O)N7CCc8cc(Cn9nc(-c%10ccc%11oc(N)nc%11c%10)c%10c(N)ncnc%109)ccc8C7)cn6)CC5)CC4)ncc3C2)[C@H](C)C[C@H](C)/C=C/C=C/C=C/1C [Example 57] | < 1 | 3.16 to 31.6 | > 1000 |
| CO[C@H]1C[C@@H]2CC[C@@H](C)[C@@](O)(O2)C(=O)C(=O)N2CCCC[C@H]2C(=O)O[C@H]([C@H](C)C[C@@H]2CC[C@@H](O)[C@H](OC)C2)C[C@@H](O)[C@H](C)/C=C(\C)[C@@H](O)[C@@H](OC)C(=NOCC(=O)NCc2cnc(N3CCN(C(=O)CCOCCN4CCN(c5ncc(C(=O)N6CCC(n7nc(-c8ccc9oc(N)nc9c8)c8c(N)ncnc87)CC6)cn5)CC4)CC3)nc2)[C@H](C)C[C@H](C)/C=C/C=C/C=C/1C [Example 32] | < 1 | 3.16 to 31.6 | 3.16 to 31.6 |
| CO[C@H]1C[C@@H]2CC[C@@H](C)[C@@](O)(O2)C(=O)C(=O)N2CCCC[C@H]2C(=O)O[C@H]([C@H](C)C[C@@H]2CC[C@@H](O)[C@H](OC)C2)C[C@@H](O)[C@H](C)/C=C(\C)[C@@H](O)[C@@H](OC)C(=NOCC(=O)NCc2cnc(N3CCN(C(=O)CCOCCN4CCN(c5ncc(C(=O)N6CCc7cc(Cn8nc(-c9ccc%10oc(N)nc%10c9)c9c(N)ncnc98)ccc7C6)cn5)CC4)[C@@H](C(=O)O)C3)nc2)[C@H](C)C[C@H](C)/C=C/C=C/C=C/1C [Example 55] | < 1 | 3.16 to 31.6 | > 1000 |
| CO[C@H]1C[C@@H]2CC[C@@H](C)[C@@](O)(O2)C(=O)C(=O)N2CCCC[C@H]2C(=O)O[C@H]([C@H](C)C[C@@H]2CC[C@@H](O)[C@H](OC)C2)C[C@@H](O)[C@H](C)/C=C(\C)[C@@H](O)[C@@H](OC)C(=NOCC(=O)N2CCc3nc(N4CCN(CCOCCN5CCN(c6ncc(C(=O)N7CCc8cc(Cn9nc(-c%10ccc%11oc(N)nc%11c%10)c%10c(N)ncnc%109)ccc8C7)cn6)CC5)CC4)ncc3C2)[C@H](C)C[C@H](C)/C=C/C=C/C=C/1C [Example 61] | 1 to 10 | 3.16 to 31.6 | > 1000 |
| CO[C@H]1C[C@@H]2CC[C@@H](C)[C@@](O)(O2)C(=O)C(=O)N2CCCC[C@H]2C(=O)O[C@H]([C@H](C)C[C@@H]2CC[C@@H](O)[C@H](OC)C2)C[C@@H](O)[C@H](C)/C=C(\C)[C@@H](O)[C@@H](OC)C(=NOCC(=O)NCc2cnc(N3CCN(C(=O)CCOCCN4CCN(C(=O)CN(C)CC(=O)N5CCc6cc(Cn7nc(-c8ccc9oc(N)nc9c8)c8c(N)ncnc87)ccc6C5)CC4)CC3)nc2)[C@H](C)C[C@H](C)/C=C/C=C/C=C/1C [Example 36] | 1 to 10 | 31.6 to 1000 | > 1000 |
| CO[C@H]1C[C@@H]2CC[C@@H](C)[C@@](O)(O2)C(=O)C(=O)N2CCCC[C@H]2C(=O)O[C@H]([C@H](C)C[C@@H]2CC[C@@H](O)[C@H](OC)C2)C[C@@H](O)[C@H](C)/C=C(\C)[C@@H](O)[C@@H](OC)C(=NOCC(=O)N2CCc3nc(N4CCN(c5ncc(C(=O)NCCOCCOCCOCCC(=O)NCCCCn6nc(-c7ccc8oc(N)nc8c7)c7c(N)ncnc76)cn5)CC4)ncc3C2)[C@H](C)C[C@H](C)/C=C/C=C/C=C/1C [Example 15] | 1 to 10 | 3.16 to 31.6 | 31.6 to 1000 |
| CO[C@H]1C[C@@H]2CC[C@@H](C)[C@@](O)(O2)C(=O)C(=O)N2CCCC[C@H]2C(=O)O[C@H]([C@H](C)C[C@@H]2CC[C@@H](O)[C@H](OC)C2)C[C@@H](O)[C@H](C)/C=C(\C)[C@@H](O)[C@@H](OC)C(=NOCC(=O)NCc2cnc(N3CCN(C(=O)CCCN4CCN(c5ncc(C(=O)N6CCc7cc(Cn8nc(-c9ccc%10oc(N)nc%10c9)c9c(N)ncnc98)ccc7C6)cn5)CC4)CC3)nc2)[C@H](C)C[C@H](C)/C=C/C=C/C=C/1C [Example 65] | 1 to 10 | 3.16 to 31.6 | > 1000 |
| CO[C@H]1C[C@@H]2CC[C@@H](C)[C@@](O)(O2)C(=O)C(=O)N2CCCC[C@H]2C(=O)O[C@H]([C@H](C)C[C@@H]2CC[C@@H](O)[C@H](OC)C2)C[C@@H](O)[C@H](C)/C=C(\C)[C@@H](O)[C@@H](OC)C(=NOCC(=O)NCc2cnc(N3CCN(C(=O)CCOCCN4CCN(c5ncc(C(=O)NCCOCCC(=O)N6CCc7cc(Cn8nc(-c9ccc%10oc(N)nc%10c9)c9c(N)ncnc98)ccc7C6)cn5)CC4)CC3)nc2)[C@H](C)C[C@H](C)/C=C/C=C/C=C/1C [Example 39] | 1 to 10 | 3.16 to 31.6 | > 1000 |
| CO[C@H]1C[C@@H]2CC[C@@H](C)[C@@](O)(O2)C(=O)C(=O)N2CCCC[C@H]2C(=O)O[C@H]([C@H](C)C[C@@H]2CC[C@@H](O)[C@H](OC)C2)C[C@@H](O)[C@H](C)/C=C(\C)[C@@H](O)[C@@H](OC)C(=NOCC(=O)N2CCc3nc(N4CCN(c5ncc(C(=O)NCCOCCOCCC(=O)NCCCCn6nc(-c7ccc8oc(N)nc8c7)c7c(N)ncnc76)cn5)CC4)ncc3C2)[C@H](C)C[C@H](C)/C=C/C=C/C=C/1C [Example 16] | 1 to 10 | 3.16 to 31.6 | > 1000 |
| CO[C@H]1C[C@@H]2CC[C@@H](C)[C@@](O)(O2)C(=O)C(=O)N2CCCC[C@H]2C(=O)O[C@H]([C@H](C)C[C@@H]2CC[C@@H](O)[C@H](OC)C2)C[C@@H](O)[C@H](C)/C=C(\C)[C@@H](O)[C@@H](OC)C(=NOCC(=O)NCc2cnc(N3CCN(C(=O)CN(C)CC(=O)NCCOCCOCCC(=O)NCCCCn4nc(-c5ccc6oc(N)nc6c5)c5c(N)ncnc54)CC3)nc2)[C@H](C)C[C@H](C)/C=C/C=C/C=C/1C [Example 24] | 1 to 10 | 31.6 to 1000 | 31.6 to 1000 |
| CO[C@H]1C[C@@H]2CC[C@@H](C)[C@@](O)(O2)C(=O)C(=O)N2CCCC[C@H]2C(=O)O[C@H]([C@H](C)C[C@@H]2CC[C@@H](O)[C@H](OC)C2)C[C@@H](O)[C@H](C)/C=C(\C)[C@@H](O)[C@@H](OC)C(=NOCC(=O)NCc2cnc(N3CCN(C(=O)CN(C)CC(=O)NCCOCCOCCC(=O)NCCCCn4nc(-c5cnc6[nH]ccc6c5)c5c(N)ncnc54)CC3)nc2)[C@H](C)C[C@H](C)/C=C/C=C/C=C/1C [Example 22] | 1 to 10 | 31.6 to 1000 | > 1000 |
| CO[C@H]1C[C@@H]2CC[C@@H](C)[C@@](O)(O2)C(=O)C(=O)N2CCCC[C@H]2C(=O)O[C@H]([C@H](C)C[C@@H]2CC[C@@H](O)[C@H](OC)C2)C[C@@H](O)[C@H](C)/C=C(\C)[C@@H](O)[C@@H](OC)C(=NOCC(=O)NCc2cnc(N3CCN(c4ncc(C(=O)NCCOCCOCCOCCC(=O)NCCCCn5nc(-c6ccc7oc(N)nc7c6)c6c(N)ncnc65)cn4)CC3)nc2)[C@H](C)C[C@H](C)/C=C/C=C/C=C/1C [Example 20] | 1 to 10 | 3.16 to 31.6 | > 1000 |
| CO[C@H]1C[C@@H]2CC[C@@H](C)[C@@](O)(O2)C(=O)C(=O)N2CCCC[C@H]2C(=O)O[C@H]([C@H](C)C[C@@H]2CC[C@@H](O)[C@H](OC)C2)C[C@@H](O)[C@H](C)/C=C(\C)[C@@H](O)[C@@H](OC)C(=NOCC(=O)NC2CCN(CC(=O)NCCOCCOCCOCCOCCOCCOCCC(=O)N3CCc4cc(Cn5nc(-c6ccc7oc(N)nc7c6)c6c(N)ncnc65)ccc4C3)CC2)[C@H](C)C[C@H](C)/C=C/C=C/C=C/1C [Example 68] | 1 to 10 | 3.16 to 31.6 | 31.6 to 1000 |
